This note sets out measurements from paper PMC4923153, “Protection of Primary Dopaminergic Midbrain Neurons by GPR139 Agonists Supports Different Mechanisms of MPP^+ and Rotenone Toxicity” (Frontiers in Cellular Neuroscience, 2016).

pEC50: −log10 of the molar value.

In one assay the target is T1, human GPR139 receptor (Homo sapiens, UniProt Q6DWJ6).
T1 construct: expressed in transfected cells; host or cells: CHO-K1
T1 sequence (Q6DWJ6 1-353): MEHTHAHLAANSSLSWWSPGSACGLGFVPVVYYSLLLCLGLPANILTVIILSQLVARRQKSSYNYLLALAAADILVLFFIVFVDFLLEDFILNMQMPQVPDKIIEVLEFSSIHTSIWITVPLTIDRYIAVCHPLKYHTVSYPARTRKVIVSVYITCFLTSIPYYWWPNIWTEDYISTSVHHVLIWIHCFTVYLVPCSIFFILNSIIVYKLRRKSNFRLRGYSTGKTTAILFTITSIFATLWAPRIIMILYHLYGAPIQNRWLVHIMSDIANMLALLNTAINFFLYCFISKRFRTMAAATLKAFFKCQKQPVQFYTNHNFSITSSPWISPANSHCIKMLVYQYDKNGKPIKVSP
In words: GPR139 calcium mobilization assay (CHO-K1 cells stably expressing the receptor). The class given is cell-based. The settings on record: Ca2+ mobilization, determined as described (Shi et al., 2011); read-out: EC50 (GPR139 agonist). As for the experimental part:
EC50 and IC50 for all compounds were determined as described (Shi et al., [2011]).
All compounds were further characterized using GPR139-based Ca^2+ mobilization assays (Figure 5).
Figure 5 Additional characterization of GPR139 compounds using kinetic fluorescence measurements and concentration-response determination in calcium mobilization assays. (A–D) Examples for the kinetic of relative fluorescence units (RFU) for compound 1 and 4 and related controls, involving a two-step addition protocol. (A) Cellular fluorescence response to addition of buffer (approximately at time 0:00 min) and a second addition of buffer at 3:20 min. (B) Cellular fluorescence response to addition of the Ca^2+ ionophore and reference compound for complete release of Ca^2+ from intracellular stores, ionomycin. (C) Cellular response to addition of 10 μM compound 1 at time 0:00. (D) Cellular fluorescence in response to antagonist compound 4 (at 0:00, 50 μM) and addition of agonist compound 1 at EC85 concentration. […]
Standard molecular cloning techniques were used to generate Chinese hamster ovary (CHO-K1) cells stably expressing the human GPR139 receptor. […] Calcium flux was measured using a Hamamatsu FDSS7000 imaging-based plate reader (Hamamatsu Photonics) using 480 nm excitation light and emitted fluorescent light passed through a 525 nm emission filter and detected by a CCD camera. […]

In the next assay the target is DAT (Homo sapiens, UniProt Q01959). Kind of assay: Inhibition of binding to the DAT (cross reactivity). The note with it: concentration not given. As for the experimental part:
None of the compounds were useful in vivo tools due to their unfavorable ADME properties including low whole brain exposure and brain/plasma ratio (Shi et al., [2011]). Cross reactivity with the DAT or the norepinephrine transporter was determined as described (Shi et al., [2011]).
As both 6-OHDA and MPP^+ are taken up via the DAT, it was not likely that the agonists mediated their protection against MPP^+ by merely blocking the DAT. However, to further exclude the possibility that the protection against MPP^+ by the agonist compound 3 is mediated by blocking MPP^+ uptake, rather than signaling through GPR139, DA and noradrenaline uptake in the presence of the agonist was tested. […] Ten micrometres (10 μM) compound 1 inhibited binding to the DAT or the norepinephrine transporter by 4% or −8%, respectively (Shi et al., [2011]) compound 2 inhibited binding to the DAT or the norepinephrine transporter 2% or −4%, respectively.

DAT, sequence (Q01959 whole entry, species assumed): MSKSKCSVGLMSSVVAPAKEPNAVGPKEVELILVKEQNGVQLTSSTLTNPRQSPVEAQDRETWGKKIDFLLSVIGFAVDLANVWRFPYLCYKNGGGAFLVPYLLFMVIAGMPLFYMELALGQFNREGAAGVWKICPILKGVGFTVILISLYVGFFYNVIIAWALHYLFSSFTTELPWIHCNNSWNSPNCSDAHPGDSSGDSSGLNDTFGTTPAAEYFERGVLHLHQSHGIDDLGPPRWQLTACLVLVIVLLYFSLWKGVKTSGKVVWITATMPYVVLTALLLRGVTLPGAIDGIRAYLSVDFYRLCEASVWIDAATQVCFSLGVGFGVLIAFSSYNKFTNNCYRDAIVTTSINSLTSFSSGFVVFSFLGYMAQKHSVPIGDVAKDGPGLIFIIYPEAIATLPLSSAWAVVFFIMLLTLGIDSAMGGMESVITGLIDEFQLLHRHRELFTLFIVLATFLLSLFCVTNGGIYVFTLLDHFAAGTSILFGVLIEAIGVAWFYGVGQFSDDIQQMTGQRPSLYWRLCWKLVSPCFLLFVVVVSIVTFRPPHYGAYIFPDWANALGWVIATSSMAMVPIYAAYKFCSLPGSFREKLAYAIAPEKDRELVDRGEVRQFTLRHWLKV

As for `CN(C)C1CCN(C(=O)CNC(=O)Cc2cccc3ccccc23)C1` (centres unmarked) [compound 2, N-[2-(3-Dimethylamino-pyrrolidin-1-yl)-2-oxo-ethyl]-2-Naphthalen-1-yl-acetamide], the pEC50 on human GPR139 receptor is 6.28. The “inhibition of binding to the DAT” value on DAT was found to be 2%.
